Experimental data reported in patent US20240182445A1 (ONO PHARMACEUTICAL CO., LTD., priority 2019, published 2024).

target: T1, human TREK-1 (Homo sapiens, UniProt O95069); assay: TREK-1 Thallium (Tl+) flux assay, Method 1; type: cell-based; settings: TREK-1 Thallium (Tl+) flux assay, Method 1
T1 construct: expressed in transfected cells
T1 sequence (O95069 1-426): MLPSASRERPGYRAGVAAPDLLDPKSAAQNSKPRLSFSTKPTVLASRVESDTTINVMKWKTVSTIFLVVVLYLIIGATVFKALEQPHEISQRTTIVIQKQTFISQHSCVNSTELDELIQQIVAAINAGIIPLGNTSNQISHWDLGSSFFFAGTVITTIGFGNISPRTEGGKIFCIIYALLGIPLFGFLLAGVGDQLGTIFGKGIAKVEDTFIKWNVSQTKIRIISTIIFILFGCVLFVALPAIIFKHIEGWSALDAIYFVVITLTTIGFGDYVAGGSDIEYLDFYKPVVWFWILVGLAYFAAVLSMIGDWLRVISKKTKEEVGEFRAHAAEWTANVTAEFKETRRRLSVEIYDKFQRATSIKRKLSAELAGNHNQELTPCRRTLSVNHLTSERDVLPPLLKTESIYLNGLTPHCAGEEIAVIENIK
Summary of the method: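 CHO-K1 cells stably expressing human TREK-1, loaded with Thallos dye, received compound or 0.3% DMSO vehicle for 10 min before thallium stimulus buffer. ΔRatio is fluorescence at 25 s after thallium addition over mean pre-addition fluorescence; % inhibition calculated from it.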

| IC50 [nM] | SMILES |
| --- | --- |
| 3000 | Cc1cc(OCc2ccccc2)ccc1NC(=O)c1c(Cl)cnn1CC1CN(C(=O)C2COCCO2)CCO1 (stereo not drawn) [Compound 412, 1-((4-(1,4-dioxane-2-carbonyl)morpholin-2-yl)methyl)-N-(4-(benzyloxy)-2-methylphenyl)-4-chloro-1H-pyrazole-5-carboxamide] |
| 1420 | Cc1cc(-c2cnn(-c3ccc(F)cc3)c2)cnc1NC(=O)c1c(Cl)cnn1[C@H]1CCOC1 [Compound 395, (S)-4-chloro-N-(5-(1-(4-fluorophenyl)-1H-pyrazol-4-yl)-3-methylpyridin-2-yl)-1-(tetrahydrofuran-3-yl)-1H-pyrazole-5-carboxamide] |

same assay, conditions: TREK-1 Thallium (Tl+) flux assay; no *^12 (Method 2) mark on these rows

| SMILES | IC50 [nM] |
| --- | --- |
| O=C(Nc1ncc(C#Cc2ccccc2)cc1F)c1c(Cl)cnn1C[C@@H]1C[C@H]2CC[C@@H]1O2 (racemic) [Compound 319, 4-chloro-N-[3-fluoro-5-(phenylethynyl)pyridin-2-yl]-1-{[(1S,2S,4R)-7-oxabicyclo[2.2.1]heptan-2-yl]methyl}-1H-pyrazole-5-carboxamide and 4-chloro-N-[3-fluoro-5-{[(1R,2R,4S)-7-oxabicyclo[2.2.1]heptan-2-yl)methyl}-1H-pyrazole-5-carboxamide] | 620 |
| Cc1cc(C#Cc2cccc(F)c2)cnc1NC(=O)c1c(Cl)cnn1[C@H]1C[C@@H]2CN(C(=O)C(C)C)C[C@@H]2C1 [Compound 349, 4-chloro-N-{5-[(3-fluorophenyl)ethynyl]-3-methylpyridin-2-yl}-1-[(3aR,5s,6aS)-2-(2-methylpropanoyl)octahydrocyclopenta [c]pyrrol-5-yl]-1H-pyrazole-5-carboxamide] | 810 |
| Cc1cc(C#Cc2ccc(F)cc2)cnc1NC(=O)c1c(Cl)cnn1CC1(C#N)CCN(C(=O)OC(C)(C)C)CC1 [Compound 269, tert-butyl 4-((4-chloro-5-((5-((4-fluorophenyl)ethynyl)-3-methylpyridin-2-yl)carbamoyl)-1H-pyrazol-1-yl)methyl)-4-cyanopiperidine-1-carboxylate] | 450 |
| Cc1cc(C#Cc2ccccc2)cnc1NC(=O)c1c(Cl)cnn1C1CC2(C1)CN(C(=O)OC(C)(C)C)C2 [Compound 330, tert-butyl 6-(4-chloro-5-((3-methyl-5-(phenylethynyl)pyridin-2-yl)carbamoyl)-1H-pyrazol-1-yl)-2-azaspiro[3.3]heptane-2-carboxylate] | 650 |
| CC(C)(C)OC(=O)N1CCOC(Cn2ncc(Cl)c2C(=O)Nc2ncc(C#Cc3ccccc3)cc2F)C1 (stereo not drawn) [Compound 300, tert-butyl 2-((4-chloro-5-((3-fluoro-5-(phenylethynyl)pyridin-2-yl)carbamoyl)-1H-pyrazol-1-yl)methyl)morpholine-4-carboxylate] | 540 |
| CCC(=O)N1CCOC(Cn2ncc(Cl)c2C(=O)Nc2ncc(C#Cc3ccc(F)cc3)cc2C)C1 (stereo not drawn) [Compound 347, 4-chloro-N-(5-((4-fluorophenyl)ethynyl)-3-methylpyridin-2-yl)-1-((4-propionylmorpholin-2-yl)methyl)-1H-pyrazole-5-carboxamide] | 770 |
| Cc1cc(C#Cc2ccc(F)cc2)cnc1NC(=O)c1c(Cl)cnn1C1CCN(C(=O)CC(C)C)C1 (stereo not drawn) [Compound 258, 4-chloro-N-(5-((4-fluorophenyl)ethynyl)-3-methylpyridin-2-yl)-1-(1-(3-methylbutanoyl)pyrrolidin-3-yl)-1H-pyrazole-5-carboxamide] | 420 |
| Cc1cc(C#Cc2cccs2)cnc1NC(=O)c1c(Cl)cnn1C[C@H]1COCCO1 [Compound 343, (S)-1-((1,4-dioxan-2-yl)methyl)-4-chloro-N-(3-methyl-5-(thiophen-2-ylethynyl)pyridin-2-yl)-1H-pyrazole-5-carboxamide] | 760 |

The next lines start with the values.

| IC50 [nM] | SMILES |
| --- | --- |
| 330 | CC(C)(C)OC(=O)N[C@H]1C[C@H](n2ncc(Cl)c2C(=O)Nc2ncc(C#Cc3ccccc3)cc2F)C1 [Compound 214, tert-butyl (trans-3-(4-chloro-5-((3-fluoro-5-(phenylethynyl)pyridin-2-yl)carbamoyl)-1H-pyrazol-1-yl)cyclobutyl)carbamate] |
| 490 | Cc1cc(C#Cc2ccccc2)cnc1NC(=O)c1c(Cl)cnn1CC1COCC1C (stereo not drawn) [Compound 281, 4-chloro-N-(3-methyl-5-(phenylethynyl)pyridin-2-yl)-1-((4-methyltetrahydrofuran-3-yl)methyl)-1H-pyrazole-5-carboxamide] |
| 670 | Cc1cc(C#Cc2cccc(F)c2)cnc1NC(=O)c1c(Cl)cnn1[C@H]1CCOC1 [Compound 333, (S)-4-chloro-N-(5-((3-fluorophenyl)ethynyl)-3-methylpyridin-2-yl)-1-(tetrahydrofuran-3-yl)-1H-pyrazole-5-carboxamide] |
| 510 | Cc1cc(C#Cc2ccccc2)cnc1NC(=O)c1c(Cl)cnn1C1CCC(C#N)C1 (stereo not drawn) [Compound 289, 4-chloro-1-(3-cyanocyclopentyl)-N-(3-methyl-5-(phenylethynyl)pyridin-2-yl)-1H-pyrazole-5-carboxamide] |

same assay, conditions: TREK-1 Thallium (Tl+) flux assay; values without footnote *12 are Method 1

| SMILES | IC50 [nM] |
| --- | --- |
| CC(C)C(=O)N1CC[C@H](Cn2ncc(Cl)c2C(=O)Nc2ncc(C#Cc3ccccc3)cc2F)[C@H](F)C1 [Compound 58, 4-chloro-1-(((3S,4R)-3-fluoro-1-isobutyrylpiperidin-4-yl)methyl)-N-(3-fluoro-5-(phenylethynyl)pyridin-2-yl)-1H-pyrazole-5-carboxamide] | 140 |
| Cc1cc(C#Cc2ccccc2)cnc1NC(=O)c1c(Cl)cnn1CCC1CCN(C(=O)C(C)C)CC1 [Compound 188, 4-chloro-1-(2-(1-isobutyrylpiperidin-4-yl)ethyl)-N-(3-methyl-5-(phenylethynyl)pyridin-2-yl)-1H-pyrazole-5-carboxamide] | 290 |
| CCNC(=O)N1CCC(n2ncc(Cl)c2C(=O)Nc2ncc(C#Cc3cccs3)cc2C)CC1 [Compound 73, 4-(4-chloro-5-((3-methyl-5-(thiophen-2-ylethynyl)pyridin-2-yl)carbamoyl)-1H-pyrazol-1-yl)-N-ethylpiperidine-1-carboxamide] | 160 |
| Cc1cc(C#Cc2ccccc2)cnc1NC(=O)c1c(Cl)cnn1CC1(C#N)CCN(C(=O)OC(C)(C)C)CC1 [Compound 126, tert-butyl 4-((4-chloro-5-((3-methyl-5-(phenylethynyl)pyridin-2-yl)carbamoyl)-1H-pyrazol-1-yl)methyl)-4-cyanopiperidine-1-carboxylate] | 210 |
| Cc1cc(C#Cc2ccccc2)cnc1NC(=O)c1c(Cl)cnn1-c1ccc2c(cnn2C)c1 [Compound 22, 4-chloro-1-(1-methyl-1H-indazol-5-yl)-N-(3-methyl-5-(phenylethynyl)pyridin-2-yl)-1H-pyrazole-5-carboxamide] | 80 |
| CC(=O)N1CCOC(Cn2ncc(Cl)c2C(=O)Nc2ncc(C#Cc3ccccc3)cc2F)C1 (stereo not drawn) [Compound 27, 1-((4-acetylmorpholin-2-yl)methyl)-4-chloro-N-(3-fluoro-5-(phenylethynyl)pyridin-2-yl)-1H-pyrazole-5-carboxamide] | 90 |
| Cc1cc(C#Cc2cccc(F)c2)cnc1NC(=O)c1c(Cl)cnn1C1CCN(C(=O)C(C)C)CC1 [Compound 152, 4-chloro-N-(5-((3-fluorophenyl)ethynyl)-3-methylpyridin-2-yl)-1-(1-isobutyrylpiperidin-4-yl)-1H-pyrazole-5-carboxamide] | 240 |
| CC(C)C(=O)N1CC[C@@H](Cn2ncc(Cl)c2C(=O)Nc2ncc(C#Cc3ccccc3)cc2F)[C@@H](F)C1 [Compound 146, 4-chloro-1-(((3R,4S)-3-fluoro-1-isobutyrylpiperidin-4-yl)methyl)-N-(3-fluoro-5-(phenylethynyl)pyridin-2-yl)-1H-pyrazole-5-carboxamide] | 230 |

More lines, now with the values ahead:

| IC50 [nM] | SMILES |
| --- | --- |
| 200 | CC(=O)N1CC[C@H](n2ncc(Cl)c2C(=O)Nc2ncc(C#Cc3ccccc3)cc2C)C[C@@H]1C (single isomer, unassigned) [Compound 114, 1-[(2S,4S)-1-acetyl-2-methylpiperidin-4-yl]-4-chloro-N-[3-methyl-5-(phenylethynyl)pyridin-2-yl]-1H-pyrazole-5-carboxamide or 1-[(2R,4R)-1-acetyl-2-methylpiperidin-4-yl]-4-chloro-N-[3-methyl-5-(phenylethynyl)pyridin-2-yl]-1H-pyrazole-5-carboxamide] |
| 300 | Cc1cc(C#Cc2ccccc2)cc(F)c1NC(=O)c1c(Cl)cnn1C1CC(C#N)C1 (stereo not drawn) [Compound 194, 4-chloro-1-(3-cyanocyclobutyl)-N-(2-fluoro-6-methyl-4-(phenylethynyl)phenyl)-1H-pyrazole-5-carboxamide] |
| 70 | CC(=O)N1CC[C@@H](n2ncc(Cl)c2C(=O)Nc2ncc(C#Cc3ccccc3)cc2F)[C@H](F)C1 [Compound 20, 1-((3R,4R)-1-acetyl-3-fluoropiperidin-4-yl)-4-chloro-N-(3-fluoro-5-(phenylethynyl)pyridin-2-yl)-1H-pyrazole-5-carboxamide] |
| 180 | CC(=O)N1CC[C@H](n2ncc(Cl)c2C(=O)Nc2ncc(C#Cc3ccccc3)cc2C)[C@H](F)C1 [Compound 99, 1-((3R,4S)-1-acetyl-3-fluoropiperidin-4-yl)-4-chloro-N-(3-methyl-5-(phenylethynyl)pyridin-2-yl)-1H-pyrazole-5-carboxamide] |
| 110 | CCC(=O)N1CCC(n2ncc(Cl)c2C(=O)Nc2ncc(C#Cc3ccccc3)cc2F)CC1 [Compound 34, 4-chloro-N-(3-fluoro-5-(phenylethynyl)pyridin-2-yl)-1-(1-propionylpiperidin-4-yl)-1H-pyrazole-5-carboxamide] |
